Each structure is given as a SMILES string. Where two headings read alike, the source gives them in different places.

In data set [1] the test system is HBsAg-Sekretion von Hep G2 (2.2.15)-Zellen. In words: Inhibition of HBsAg secretion of Hep G2 (2.2.15) cells (solid-phase radioimmunoassay of the medium). In kind it is cell-based, HBV. How it is done: (§1) Die Testung der antiviralen Wirksamkeit der Nucleoside auf zelluärer Ebene erfolgte an einer menschlichen Hepatoblastom-Zellinie, die mit dem HBV-Genom tranfiziert wurde und sowohl das Oberflächenantigen des Virus (HBsAg) als auch die HBV-DNA permanent produziert und infektiöse Viruspartikel in das Medium abgibt (Hep G2-Zellen, Klon 2.2.15, Sells et al. Proc.Natl.Acad. Sci. 84, 1005 (1987)). Die Zellen (5x10⁵/ml) wurden in RPMI 1640-Medium mit 2 mM Glutamin und 10% fetalem Kälberserum allein oder zusammen mit den Nucleosid-Analoga für 4 Tage inkubiert, danach wurden den Ansätzen für 24 Stunden ³H-Thymidin bzw. ³H-Desoxyadenosin (3 µCi/ml) zugesetzt, die Zellen abzentrifugiert und darin die säureunlösliche Radioaktivität und damit der Einfluß auf die DNA-Synthese bestimmt. Im Inkubationsmedium wurde das HBsAg durch Festphasenradioimmunoassay (Travenol-Genentech Diagnostics, Cambridge, MA) entsprechend den Instruktionen des Herstellers ermittelt. Die Tabelle 4 faßt die Ergebnisse zusammen, die belegen, daß die getesteten Verbindungen hochwirksame und selektive Hemmstoffe der HBV-Vermehrung sind.

The subject of the next data set is Hep G2 (2.2.15)-Zellen. In words: DNA synthesis of Hep G2 (2.2.15) cells (acid-insoluble radioactivity after 3H-thymidine or 3H-deoxyadenosine). To be noted: 4 days, then 24 h label, mean ± SD of five experiments. In kind it is cell-based, menschlichen. As to the method: as §1
The next data set deals with T1, HBV-Polymerase (Hepatitis B virus genotype D subtype ayw, UniProt P03156).
T1 construct: Es wurde zunächst die Hemmbarkeit der HBV-assoziierten Polymerase; host or cells: virus-associated endogenous polymerase
T1 sequence (P03156 whole entry): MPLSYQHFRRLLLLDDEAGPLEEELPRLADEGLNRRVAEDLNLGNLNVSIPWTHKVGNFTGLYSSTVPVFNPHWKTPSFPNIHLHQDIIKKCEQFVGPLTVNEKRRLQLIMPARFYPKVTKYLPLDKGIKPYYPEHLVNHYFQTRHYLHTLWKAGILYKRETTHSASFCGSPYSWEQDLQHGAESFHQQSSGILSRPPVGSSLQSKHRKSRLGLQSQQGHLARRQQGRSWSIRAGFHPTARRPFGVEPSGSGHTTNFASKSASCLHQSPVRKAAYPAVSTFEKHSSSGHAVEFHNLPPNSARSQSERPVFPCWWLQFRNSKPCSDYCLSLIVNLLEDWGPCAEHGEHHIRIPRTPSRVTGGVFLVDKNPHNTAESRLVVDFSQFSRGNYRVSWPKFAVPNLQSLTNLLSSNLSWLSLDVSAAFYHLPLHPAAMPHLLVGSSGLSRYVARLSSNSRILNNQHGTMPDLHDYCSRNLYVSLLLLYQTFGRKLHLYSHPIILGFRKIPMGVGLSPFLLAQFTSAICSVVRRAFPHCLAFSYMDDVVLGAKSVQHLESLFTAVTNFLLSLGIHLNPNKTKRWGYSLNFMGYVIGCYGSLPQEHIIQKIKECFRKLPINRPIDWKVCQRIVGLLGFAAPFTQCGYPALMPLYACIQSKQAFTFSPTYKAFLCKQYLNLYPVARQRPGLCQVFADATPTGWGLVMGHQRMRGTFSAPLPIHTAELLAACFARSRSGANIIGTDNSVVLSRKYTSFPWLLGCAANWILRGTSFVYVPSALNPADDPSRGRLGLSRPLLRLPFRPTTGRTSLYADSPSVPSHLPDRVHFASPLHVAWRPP
In words: Inhibition of HBV polymerase activity by nucleoside triphosphate analogues (method of Kaplan et al.). Type of data set: biochemical. An excerpt:
Das Hepatitis B Virus (HBV) besitzt eine zirkuläre, partiell doppelsträngige DNA, welche nach Infektion einer Leberzelle durch eine viruseigene Polymerase repliziert wird. Dieser Vorgang setzt jedoch die Synthese einer RNA durch eine zelluläre RNA-Polymerase voraus. Nur diese RNA-Matrize - im Zusammenhang mit der Replikation auch als Prägenom bezeichnet - kann von der HBV-Polymerase für die Synthese zunächst eines RNA-DNA Hybrids und dann der doppelsträngigen DNA benutzt werden. Damit verfügt die HBV-Polymerase über eine enzymatische Aktivität, die der einer reversen Transcriptase ähnelt (Will et al., J.Virology 61, 904 (1987)). Es wurde zunächst die Hemmbarkeit der HBV-assoziierten Polymerase durch die 5′-Triphosphate der erfindungsgemäßen Verbindungen untersucht. Dazu wurde die von Kaplan et al. (J.Virology 12, 995 (1973)) angegebene Methode zur Bestimmung der HBV-Polymerase benutzt, wobei die zu testenden Triphosphate den Ansätzen in verschiedenen Konzentrationen zugesetzt wurden. Die Hemmung der Enzymreaktion wurde nach 3-stündiger Inkubation bei 37 °C durch Vergleich mit einem Kontrollwert ermittelt und daraus die Konzentration der zugesetzten Analoga bestimmt, die zu einer 50 %igen Hemmung der HBV-Polymerase-Aktivität führt (ID₅₀). Tabelle 1 zeigt die Ergebnisse, wobei insbesondere 2′,3′-Didesoxy-3′-fluor-5-methylcytidin durch einen Wert ID₅₀ von 0,03 µM herausragt und damit zu den stärksten bisher bekannten Hemmstoffen der HBV-Polymerase zu rechnen ist. Tabelle 1

The mark [2] stands for this setting: nucleoside 0,01 µM, 4 days + 24 h, mean ± SD of five experiments.
Setting [3] is: nucleoside 0,1 µM, 4 days + 24 h, mean ± SD of five experiments.
Setting [4] is: nucleoside 0,01 µM, % of control without nucleoside (100).
Setting [5] is: nucleoside 0,1 µM, % of control without nucleoside (100).
Where [6] appears, read: nucleoside 0,03 µM, 4 days + 24 h, mean ± SD of five experiments.
[7] abbreviates: nucleoside 0,3 µM, 4 days + 24 h, mean ± SD of five experiments.
Where [8] appears, read: nucleoside 0,03 µM, % of control without nucleoside (100).
Setting [9] is: nucleoside 0,3 µM, % of control without nucleoside (100).
Setting [10] is: nucleoside 0,003 µM, 4 days + 24 h, mean ± SD of five experiments.
[11] abbreviates: nucleoside 0,003 µM, % of control without nucleoside (100).
[12] abbreviates: nucleoside 1,0 µM, 4 days + 24 h, mean ± SD of five experiments.
The mark [13] stands for this setting: nucleoside 1,0 µM, % of control without nucleoside (100).
Setting [14] is: nucleoside 3,0 µM, 4 days + 24 h, mean ± SD of five experiments.
[15] abbreviates: nucleoside 3,0 µM, % of control without nucleoside (100).

Consider `Nc1ccn([C@H]2C=C[C@@H](CO)O2)c(=O)n1` [2',3'-Didehydro-2',3'-didesoxycytidin], for which the HBsAg was 12,1 ± 1,6 ng/ml in data set [1] (setting [2]); 0,8 ± 0,2 ng/ml in data set [1] (setting [3]); 69% in data set [1] (setting [4]); 5% in data set [1] (setting [5]); 5,8 ± 1,2 ng/ml in data set [1] (setting [6]); 0,4 ± 0,2 ng/ml in data set [1] (setting [7]). Besides, the HBsAg in data set [1] (setting [8]) was 33%; in data set [1] (setting [9]), 2%; in data set [1] (setting [10]) it was 18,7 ± 2,8 ng/ml; in data set [1] (setting [11]), 107%; in data set [1] (setting [12]), < 0,1 ng/ml; in data set [1] (setting [13]), less than 1%. For the same compound, the HBsAg in data set [1] (setting [14]) is < 0,1 ng/ml; in data set [1] (setting [15]), less than 1%. Also, the “^3H-DNA” value is listed as 18410 ± 1895 dpm/Kultur with Hep G2 (2.2.15)-Zellen (nucleoside 0,01 µM); 19930 ± 1830 dpm/Kultur with Hep G2 (2.2.15)-Zellen (nucleoside 0,1 µM); 15685 ± 1740 dpm/Kultur in the data set on Hep G2 (2.2.15)-Zellen (nucleoside 0,03 µM); 14270 ± 1655 dpm/Kultur in the data set with Hep G2 (2.2.15)-Zellen (nucleoside 0,3 µM); 17940 ± 1865 dpm/Kultur in the data set on Hep G2 (2.2.15)-Zellen (nucleoside 0,003 µM); 12350 ± 1310 dpm/Kultur in the data set with Hep G2 (2.2.15)-Zellen (nucleoside 1,0 µM). For the same compound, the “^3H-DNA” value in the data set on Hep G2 (2.2.15)-Zellen (nucleoside 3,0 µM) is recorded as 6535 ± 790 dpm/Kultur.

As for `Nc1nc(N)c2ncn([C@H]3C[C@H](F)[C@@H](CO)O3)c2n1` [2',3'-Didesoxy-3'-fluor-2,6-diaminopurinribosid], the HBsAg in data set [1] (setting [2]) was 3,2 ± 0,6 ng/ml; in data set [1] (setting [3]), < 0,1 ng/ml; in data set [1] (setting [4]), 18%; in data set [1] (setting [5]), less than 1%; in data set [1] (setting [6]) it was 2,0 ± 0,5 ng/ml; in data set [1] (setting [7]), < 0,1 ng/ml. The HBsAg in data set [1] (setting [8]) was 11%; in data set [1] (setting [9]), less than 1%; in data set [1] (setting [10]), 15,9 ± 2,7 ng/ml; in data set [1] (setting [11]), 91%; in data set [1] (setting [12]), < 0,1 ng/ml; in data set [1] (setting [13]), less than 1%. Moreover, the HBsAg in data set [1] (setting [14]) was < 0,1 ng/ml; in data set [1] (setting [15]) it was less than 1%. For the same compound, the “^3H-DNA” value was determined as 16820 ± 1775 dpm/Kultur in the data set with Hep G2 (2.2.15)-Zellen (nucleoside 0,01 µM); 19990 ± 1820 dpm/Kultur in the data set with Hep G2 (2.2.15)-Zellen (nucleoside 0,1 µM); 17265 ± 1895 dpm/Kultur with Hep G2 (2.2.15)-Zellen (nucleoside 0,03 µM); 15125 ± 1795 dpm/Kultur in the data set on Hep G2 (2.2.15)-Zellen (nucleoside 0,3 µM); 19535 ± 1835 dpm/Kultur in the data set on Hep G2 (2.2.15)-Zellen (nucleoside 0,003 µM); 18885 ± 1950 dpm/Kultur in the data set on Hep G2 (2.2.15)-Zellen (nucleoside 1,0 µM). Besides, the “^3H-DNA” value in the data set on Hep G2 (2.2.15)-Zellen (nucleoside 3,0 µM) is 17740 ± 1670 dpm/Kultur.

On to `CCc1cn([C@H]2C[C@H](F)[C@@H](CO)O2)c(=O)nc1N` [2',3'-Didesoxy-3'-fluor-5-ethylcytidin], for which the HBsAg in data set [1] (setting [2]) was 8,2 ± 0,8 ng/ml; in data set [1] (setting [3]), 0,6 ± 0,1 ng/ml; in data set [1] (setting [4]), 42%; in data set [1] (setting [5]), 3%; in data set [1] (setting [6]), 2,6 ± 0,6 ng/ml; in data set [1] (setting [7]) it was < 0,1 ng/ml. In addition, the HBsAg in data set [1] (setting [8]) is listed as 13%; in data set [1] (setting [9]), less than 1%; in data set [1] (setting [10]), 16,7 ± 2,6 ng/ml; in data set [1] (setting [11]), 87%; in data set [1] (setting [12]), < 0,1 ng/ml; in data set [1] (setting [13]), less than 1%. Besides, the HBsAg in data set [1] (setting [14]) is < 0,1 ng/ml; in data set [1] (setting [15]), less than 1%. Also, the “^3H-DNA” value came to 13855 ± 1945 dpm/Kultur in the data set on Hep G2 (2.2.15)-Zellen (nucleoside 0,01 µM); 15245 ± 1655 dpm/Kultur in the data set with Hep G2 (2.2.15)-Zellen (nucleoside 0,1 µM); 14570 ± 1695 dpm/Kultur in the data set on Hep G2 (2.2.15)-Zellen (nucleoside 0,03 µM); 14130 ± 1940 dpm/Kultur in the data set with Hep G2 (2.2.15)-Zellen (nucleoside 0,3 µM); 14020 ± 1780 dpm/Kultur with Hep G2 (2.2.15)-Zellen (nucleoside 0,003 µM); 9850 ± 1230 dpm/Kultur in the data set on Hep G2 (2.2.15)-Zellen (nucleoside 1,0 µM). In the data set on Hep G2 (2.2.15)-Zellen (nucleoside 3,0 µM), the “^3H-DNA” value is given as 6640 ± 965 dpm/Kultur.

As to `Nc1nc2c(ncn2[C@H]2C[C@H](N)[C@@H](COP(=O)(O)OP(=O)(O)OP(=O)(O)O)O2)c(=O)[nH]1` [2′,3′-Didesoxy-3′-aminoguanosin-5′-triphosphat], the IC50 on HBV-Polymerase (50 % inhibition of HBV polymerase activity, 3 h incubation at 37 °C, read-out: ID₅₀) was 4000 nM.

With `Nc1ncc2ncn([C@H]3C[C@H](F)[C@@H](COP(=O)(O)OP(=O)(O)OP(=O)(O)O)O3)c2n1` [2′,3′-Didesoxy-3′-fluor-2-aminopurinribosid-5′-triphosphat], on HBV-Polymerase, the IC50 turned out to be 600 nM.

With `Nc1nc2c(ncn2[C@H]2C[C@H](F)[C@@H](COP(=O)(O)OP(=O)(O)OP(=O)(O)O)O2)c(=S)[nH]1` [2′,3′-Didesoxy-3′-fluor-6-thioguanosin-5′-triphosphat], the IC50 at HBV-Polymerase came to 500 nM.

As to `Cc1cn([C@@H]2O[C@H](CO)[C@@H](O)[C@@H]2O)c(=O)nc1N` [Arabinosyl-5-methyl-cytosin, 1-β-D-Arabinofuranosyl-5-methylcytosin], the HBsAg in data set [1] (setting [2]) was 12,4 ± 1,2 ng/ml; in data set [1] (setting [3]), 3,6 ± 0,5 ng/ml; in data set [1] (setting [4]), 71%; in data set [1] (setting [5]), 21%; in data set [1] (setting [6]), 10,3 ± 1,2 ng/ml; in data set [1] (setting [7]) it was 0,6 ± 0,3 ng/ml. Moreover, the HBsAg in data set [1] (setting [8]) is given as 59%; in data set [1] (setting [9]), 3%; in data set [1] (setting [10]), 16,8 ± 1,7 ng/ml; in data set [1] (setting [11]), 96%; in data set [1] (setting [12]), < 0,1 ng/ml; in data set [1] (setting [13]), less than 1%. The HBsAg in data set [1] (setting [14]) is on record as < 0,1 ng/ml; in data set [1] (setting [15]), less than 1%. The “^3H-DNA” value in the data set with Hep G2 (2.2.15)-Zellen (nucleoside 0,01 µM) is 17990 ± 1635 dpm/Kultur; in the data set on Hep G2 (2.2.15)-Zellen (nucleoside 0,1 µM) it was 16225 ± 1825 dpm/Kultur; in the data set with Hep G2 (2.2.15)-Zellen (nucleoside 0,03 µM) it was 19075 ± 1905 dpm/Kultur; with Hep G2 (2.2.15)-Zellen (nucleoside 0,3 µM), 18600 ± 1865 dpm/Kultur; in the data set with Hep G2 (2.2.15)-Zellen (nucleoside 0,003 µM), 17755 ± 1750 dpm/Kultur; in the data set with Hep G2 (2.2.15)-Zellen (nucleoside 1,0 µM) it was 12415 ± 1070 dpm/Kultur. Further, in the data set on Hep G2 (2.2.15)-Zellen (nucleoside 3,0 µM), the “^3H-DNA” value is recorded as 8470 ± 935 dpm/Kultur.
